Reference: paper PMC7866087, “Evaluation of Computationally Designed Peptides against TWEAK, a Cytokine of the Tumour Necrosis Factor Ligand Family” (International Journal of Molecular Sciences, 2021)
Where “and” joins values, the source holds several entries; their conditions need not be identical. Identical values can stand only once. One block for each substance: values may come before it. No end group written: not given here.

Tests used:
[1] = test system: TWEAK-Fn14 signalling pathway, BRV5 cells; test: Cell-based screening of individual peptides, gene expression microarray in TWEAK-stimulated BRV5 cells; design: species or system human; conditions: 6 h; for BIRC2 mRNA expression (normalized to NARS2) / HSP90B1 mRNA expression (normalized to NARS2) / IL6 mRNA expression (normalized to NARS2) / JUN mRNA expression (normalized to NARS2) / MAP4K4 mRNA expression (normalized to NARS2) / MAPK14 mRNA expression (normalized to NARS2) / NFKB2 mRNA expression (normalized to NARS2) / TNFRSF12A mRNA expression (normalized to NARS2) / TRAF2 mRNA expression (normalized to NARS2): 450 µM
From the text: Pool 1 and 5 were therefore deconstructed to assess the effect of individual peptides and their activity on same cell-based screening. Pools 1 and 5 were composed of peptides 45, 46, 42, 3, 49, 11, and 13; and of peptides 1, 9, 30, 35, 41, 43, 7, and 14, respectively. As before, and shown in Figure 4B, the level of expression of probe genes on TWEAK-stimulated (T) BRV5 cells is overall higher than on non-stimulated (NT) one. […] The structural model of peptides 43, 30, 35 and 49 bound to TWEAK can be seen in Figure 5 and Supplementary Materials Figures S4–S6, respectively.
Three different cell lines were used in this study: BRV5, MDA-MB 435 (435-P), and HT29. The BRV5 is a highly metastatic brain cell line, obtained in one of our laboratories by primary culture from a brain of a nude mouse inoculated with human 435-Br1 brain metastatic cells, as previously described and used as a model to test the peptides in cell cultures. […] The triple negative 435-P cell line is a useful human breast cancer model that expresses both epithelial and melanocytic markers, and was included as the parental cell from which 435-Br1 metastatic variant was initially originated (both cell lines kindly provided by Dr Fabra at IDIBELL Institute, Hospitalet de Llobregat, Spain). Finally, HT29 human colon carcinoma cells obtained from the European Type Culture Collection (ECACC 91072201) were used as a positive control of TWEAK dependent Fn14 over-expressing cells to evaluate TWEAK-Fn14 axis of brain metastatic variants.
Appropriate cell culture conditions were established as the controls needed in the expression of genes with and without peptides and with and without TWEAK activation, both as pools and individually (see Supplementary Materials Figure S2). The protocol started with the seeding of 125,000 cells/well in 500 µL of culture media supplemented with 10% fetal bovine serum (CM+FBS10%) in 24-well dishes for 24 h before removing FBS (CM-FBS). After overnight starvation in CM-FBS culture, different peptide treatment conditions (at final concentration of 450 µM) were established in the presence or absence of TWEAK (25 ng/mL final concentration) (Peprotech EC, Ltd., London, UK). Some cells were treated with peptides at a single, unique, initial dose (time 0) while other were treated with repeated doses to account for the effect cell-culture degradation. These include a repeated treatment every hour (i.e., […]), every two hours (time 0, 2, and 4) and every three hours (time 0 and 3)—see Supplementary Materials Figure S2 for diagrammatic depiction. At time 6 (after six hours) cells were lysed and RNA extracted for transcriptomic analyses (see next). Cell were culture for six hours as this was the time needed to achieve the highest upregulation of the TWEAK-Fn14 axis upon TWEAK treatment as shown in previous time-course RT-PCR experiments (see Figure 2).
RNA from cells was extracted 6 h after treatments by direct lysis on the well. The RNeasy Micro kit (Qiagen, Hilden, Germany) was used to isolate total RNA from cell lysate following manufacturer’s protocols including an additional step of digestion with DNase I (Qiagen, Hilden, Germany). Total RNA concentration was measured in a NanoDrop 1000 spectrophotometer (Thermo Scientific, Waltham, MA, USA). The RNA extracted from treated and untreated cells (see above) was used as a proxy for gene expression.
The quantitative RT-PCR was performed using Fluidigm Dynamic Array FlexSix array with the specific primers for gene expression (Delta Genes Assays, Wet lab tested on Dynamic Array IFC) designed to RefSeq for detection by pPCR EvaGreen assay (Dynamic Array FlexSix, Fluidigm Corporation). Each Flex Six IFC has a total of six independent partitions. Each partition has a 12 × 12 format (12 assay inlets and 12 sample inlets) and will be run independently as a separate experimental run. […]

[2] = Precipitation in SPR running buffer; type: physicochemical; conditions: running buffer HBS-EP pH 7.4, 6.25 µM to 800 µM, 25 °C
Description: (§1) After chip validation, peptides selected on our cell-based microarray screening were tested.
Binding assays were performed at 25 °C in a Biacore 3000 instrument (GE Healthcare, Uppsala, Sweden) using nitrilotriacetic (NTA) sensor chips (GE Healthcare) and HBS-EP (0.01 M HEPES pH 7.4, 0.15 M NaCl, 3 mM EDTA, 0.005 % v/v Surfactant P20) as running buffer. Histidine-tagged human TWEAK (His6-TWEAK) protein (R&D Systems, Minneapolis, MN, USA) was covalently immobilized on the sensor surface using a capture coupling method. Briefly, the NTA surface was first stabilized by injection of regeneration buffer (20 μL EDTA-containing running buffer at 20 μL/min) followed by Ni^2+ binding to the surface (40 μL of 500 μM NiCl2 in running buffer at 20 μL/min). The carboxymethyl dextran surface was then activated for primary amine coupling by injecting coupling solution (30 μL of a 1:1 N-hydroxysuccinimide (NHS)/1-ethyl-3-[3-(dimethylamino)-propyl]carbodiimide hydrochloride (EDC) mixture at 5 μL/min). […]
Binding experiments using a monoclonal anti-TWEAK antibody (Abcam ref. 199405, Cambridge, UK) were run to ascertain adequate functionalization of the immobilized surface. […] The dissociation phase was monitored for 10 min at the same flow rate and followed by a regeneration step with 10 µL of 18 mM NaOH. […]

human His6-TWEAK protein = biological target: T1, human His6-TWEAK protein (Homo sapiens, UniProt O43508); test: SPR binding of peptides to immobilized His6-TWEAK; conditions: 25 °C, 1:1 Langmuir global fit, representative of at least three independent experiments
T1 construct: purchased R&D Systems
T1 sequence (O43508 97-249 limits assumed): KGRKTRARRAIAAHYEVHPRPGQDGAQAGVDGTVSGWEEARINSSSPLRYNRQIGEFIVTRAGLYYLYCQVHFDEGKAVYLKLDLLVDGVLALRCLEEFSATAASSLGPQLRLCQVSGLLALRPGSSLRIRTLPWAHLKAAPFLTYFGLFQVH
From the text: SPR biosensor interaction analysis, a label-free screening approach, was used for real-time monitoring of the kinetics and affinity of peptide hits to TWEAK previously identified by cell-based screening. Peptides from pools 1 and 5 were selected both as positive (49, 30, 35 and 43) and negative hits (1 and 42). For our purposes, TWEAK was chosen as ligand, while peptides were chosen as analytes and passed across ligand-derivatized surface. Nitrilotriacetic acid-coated sensor chips (NTA chip) and a coupling approach that results in the capture of a His6-protein in a non-random orientation by the His6 epitope prior to direct free amine-based covalent coupling was used for histidine-tagged TWEAK immobilization.
as §1
For each titration, a zero-analyte surface as a control was subtracted from test sensorgram as well as non-specific binding to the blank flow cell without protein; and the chip surface was regenerated in order to remove any remaining analyte. The black curves show the experimental data, while the overlaid red lines represent a global fit of the entire data set to a 1:1 Langmurian interaction model. The fitting process provided both kinetic association and dissociation rate constants (Ka and Kd), as well as equilibrium dissociation constant (KD) values indicated in Figure 6.
Binding assays were performed at 25 °C in a Biacore 3000 instrument (GE Healthcare, Uppsala, Sweden) using nitrilotriacetic (NTA) sensor chips (GE Healthcare) and HBS-EP (0.01 M HEPES pH 7.4, 0.15 M NaCl, 3 mM EDTA, 0.005 % v/v Surfactant P20) as running buffer. Histidine-tagged human TWEAK (His6-TWEAK) protein (R&D Systems, Minneapolis, MN, USA) was covalently immobilized on the sensor surface using a capture coupling method. Briefly, the NTA surface was first stabilized by injection of regeneration buffer (20 μL EDTA-containing running buffer at 20 μL/min) followed by Ni^2+ binding to the surface (40 μL of 500 μM NiCl2 in running buffer at 20 μL/min). The carboxymethyl dextran surface was then activated for primary amine coupling by injecting coupling solution (30 μL of a 1:1 N-hydroxysuccinimide (NHS)/1-ethyl-3-[3-(dimethylamino)-propyl]carbodiimide hydrochloride (EDC) mixture at 5 μL/min). His6-TWEAK protein in pH 7.4 running buffer was then injected over the surface (60 μL of 10 μg/mL His6-TWEAK at 5 μL/min). To block uncoupled primary amines on the sensor surface, ethanolamine was passed over the surface (35 μL 1M ethanolamine at 5 μL/min). Ligand surfaces were finally conditioned with a 20 µL injection of regeneration solution containing 350 mM EDTA at 20 μL/min. Immobilization levels ranged from 1500 to 7000 resonance units (RUimmob) to test different ligand densities. A blank flow cell on the chip was created by simple injection of 20 μL of regeneration buffer injected over the sensor surface.
Binding experiments using a monoclonal anti-TWEAK antibody (Abcam ref. 199405, Cambridge, UK) were run to ascertain adequate functionalization of the immobilized surface. Selected synthetic TWEAK-Fn14 inhibitory peptides at two-fold serial dilutions from 800 µM to 0 µM in running buffer were flown over the chip for 5 min at 35 µL/min. The dissociation phase was monitored for 10 min at the same flow rate and followed by a regeneration step with 10 µL of 18 mM NaOH. Specific binding responses for each channel were obtained by double referencing; subtracting non-specific binding to the blank flow cell plus an internal reference standard, namely buffer injection response. Each sample was run in triplicate. The experimental data were fitted to a 1:1 Langmuir binding model by the BIAevaluation software version 4.1 (GE Healthcare, Uppsala, Sweden).

[3] = individual peptides, BRV5 + TWEAK, mean of replicate columns
[4] = individual peptides, BRV5 + TWEAK, replicate column 1
[5] = individual peptides, BRV5 + TWEAK, replicate column 2
[6] = individual peptides, BRV5 + TWEAK, normalized to NARS2, listed as P30

Substance: 30: DNGGGNTDIYSE [Peptide 30]
- regulation of probe genes by individual peptides ([1]; BRV5 + TWEAK 25 ng/mL, peptides 450 µM): lowest overall expression across all genes
- BIRC2 mRNA expression (normalized to NARS2) [1, 3]: 0.4705
- HSP90B1 mRNA expression (normalized to NARS2) [1, 3]: 1.723
- IL6 mRNA expression (normalized to NARS2) [1, 3]: 0.001837
- JUN mRNA expression (normalized to NARS2) [1, 3]: 0.05309
- MAP4K4 mRNA expression (normalized to NARS2) [1, 3]: 0.1227
- MAPK14 mRNA expression (normalized to NARS2) [1, 3]: 0.1367
- NFKB2 mRNA expression (normalized to NARS2) [1, 3]: 0.02657
- TNFRSF12A mRNA expression (normalized to NARS2) [1, 3]: 0.01074
- TRAF2 mRNA expression (normalized to NARS2) [1, 3]: 0.01042
- BIRC2 mRNA expression (normalized to NARS2) [1, 4]: 0.46
- HSP90B1 mRNA expression (normalized to NARS2) [1, 4]: 1.5246
- IL6 mRNA expression (normalized to NARS2) [1, 4]: 0.001779
- JUN mRNA expression (normalized to NARS2) [1, 4]: 0.05111
- MAP4K4 mRNA expression (normalized to NARS2) [1, 4]: 0.1133
- MAPK14 mRNA expression (normalized to NARS2) [1, 4]: 0.1336
- NFKB2 mRNA expression (normalized to NARS2) [1, 4]: 0.02493
- TNFRSF12A mRNA expression (normalized to NARS2) [1, 4]: 0.00974
- TRAF2 mRNA expression (normalized to NARS2) [1, 4]: 0.009779
- BIRC2 mRNA expression (normalized to NARS2) [1, 5]: 0.481
- HSP90B1 mRNA expression (normalized to NARS2) [1, 5]: 1.9206
- IL6 mRNA expression (normalized to NARS2) [1, 5]: 0.001894
- JUN mRNA expression (normalized to NARS2) [1, 5]: 0.05506
- MAP4K4 mRNA expression (normalized to NARS2) [1, 5]: 0.1321
- MAPK14 mRNA expression (normalized to NARS2) [1, 5]: 0.1398
- NFKB2 mRNA expression (normalized to NARS2) [1, 5]: 0.02821
- TNFRSF12A mRNA expression (normalized to NARS2) [1, 5]: 0.01174
- TRAF2 mRNA expression (normalized to NARS2) [1, 5]: 0.01106
- BIRC2 expression Z-Score [1, 6]: -0.6095
- HSP90B1 expression Z-Score [1, 6]: -0.9208
- IL6 expression Z-Score [1, 6]: -0.0450 and -0.04503
- JUN expression Z-Score [1, 6]: -0.5095
- MAP4K4 expression Z-Score [1, 6]: -1.5551 and -1.555
- MAPK14 expression Z-Score [1, 6]: -1.1124 and -1.112
- NFKB2 expression Z-Score [1, 6]: -1.3232 and -1.323
- TNFRSF12A expression Z-Score [1, 6]: -1.112
- TRAF2 expression Z-Score [1, 6]: -0.4386
- precipitation [2]: precipitated at all concentrations tested

- kon (human His6-TWEAK protein; HBS-EP pH 7.4, Biacore 3000, NTA chip, read-out: ka): 4.88 M⁻¹ s⁻¹
- Kd (human His6-TWEAK protein; figure 6, HBS-EP pH 7.4, 6.25 µM to 800 µM peptide): 533 µM
Substance: SYTDVQDS-NH2 [Peptide 49]
